The source made the active and inactive calls.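 How the source made its calls: active means EC50 no more than a set limit of log units above the highest dose; inactive means the rest.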 A value given as a limit tells only on which side of the number the result lay.

In the test the target is S. pyogenes SKKanGAS, kanamycin survival, BacTiterGlo, 6 h. Briefly: S. pyogenes SKKanGAS kanamycin growth inhibitors – SKKanGAS strain, luminescence, dose confirmation, streptokinase promoter inhibitor project, dose response (AID 1902).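 Further: lower survival reflects blocked streptokinase promoter driving kanamycin resistance gene.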
A word on the EC50: it is the midpoint of the concentration-response curve. On to `CC(C)Nc1nc(Oc2cccc(Cl)c2Cl)cc(C(F)(F)F)n1`, for which the EC50 is 5.29 µM. As for `COc1ccc2c(c1)c(CC(=O)NCc1cc([N+](=O)[O-])ccc1O)c(C)n2C(=O)c1ccc(Cl)cc1`, the EC50 was 9.89 µM. Next, `COCCNC(=O)c1c(NC(=O)c2ccc(Br)o2)n(Cc2ccccc2)c2nc3ccccc3nc12`: 2.44 µM; `Nc1sc(-c2ccccc2)cc1C(=O)N/N=C/c1ccc(Cl)cc1`: 5.73 µM.

As for `CCOC(=O)c1c(C)oc2c1c(C(c1ccccc1)N1CCOCC1)c(O)c1ccccc12` (stereo not drawn), the EC50 was 2.66 µM.

As for `COc1ccc(-c2c/c(=N\c3nc(-c4ccccc4)c(C)s3)c3ccccc3o2)cc1O`, the EC50 is 11 µM. The value for `COc1cc(NC(=O)c2cc3nc(-c4ccccc4)cc(-c4ccccc4)n3n2)cc(OC)c1OC` was 10.1 µM.

As to `CCCSc1cc(N2CCCC2)nc(-c2ccccc2)n1`, the EC50 is 6.8 µM. Consider `CC(C)(C)c1ccc(OCC(=O)Nc2ccc(C(=O)Nc3ccccc3C(=O)O)cc2)cc1`, for which the 50% effective concentration (EC50) is 1.54 µM. Next, `O=C(Nc1ccc(Cl)c(Cl)c1)Nc1nccs1`: 8.79 µM; `CCn1cc(C(=O)OCC(=O)c2cc(C)n(-c3cccc(C(F)(F)F)c3)c2C)c(=O)c2ccc(C)nc21`: 9.92 µM. Next, `O=C1N/C(=N\c2ccccn2)SC1Cc1ccc(Cl)cc1` (stereo not drawn): > 15 µM (inactive); `Cc1cc(NCc2ccccn2)n2nc(C)c(-c3ccc(Cl)cc3)c2n1`: 4.36 µM; `Cc1nc(N/N=C\c2ccc3c(c2)OCO3)sc1C`: 4.63 µM. Next, `Cc1cc(C)cc(NS(=O)(=O)c2ccc(NC(=S)NC(=O)c3cccs3)cc2)c1`: 6.32 µM; `Cc1cc(Nc2ccccc2)n(-c2nc3ccccc3[nH]2)n1`: 2.1 µM; `O=c1cc(CSc2ccc(Cl)cc2)nc(-c2ccccn2)[nH]1`: 0.371 µM.

As to `COc1cc(OC)cc(C(=O)Nc2nc(-c3ccccc3)c(-c3ccccc3)o2)c1`, the EC50 was 0.629 µM. Regarding `CCC(C)Sc1cc(-c2nc3ccc(C)cn3c2NCc2ccccc2)ccc1OC` (stereo not drawn), the EC50 was 1.42 µM. For `CCCCCCCCCCOC(=O)Cn1c(COc2cccc(C)c2)[n+](C)c2ccccc21`, the EC50 is 2.83 µM. Next, `CC1CCc2c(sc3nc(C(C)(C)C)nc(N4CCN(C(=O)CCl)CC4)c23)C1` (stereo not drawn): 3.6 µM; `O=C(Nc1cccc(-c2nc3ccccc3[nH]2)c1)c1ccc(C(=O)Nc2cccc(-c3nc4ccccc4[nH]3)c2)cc1`: > 15 µM (inactive); `CC(C)c1ccc(OCC(=O)NNC(=S)NC(=O)C2CC2)cc1`: 0.797 µM. Next, `CCOC(=O)c1cccc(NC(=S)N2CCN(c3ncc4c(=O)c(C(=O)O)cn(CC)c4n3)CC2)c1`: 6.28 µM; `COc1ccc(OCCn2c(NC(=O)c3ccco3)nc3ccccc32)cc1`: 3.38 µM. The value for `Cc1cccc(-n2nc(C(=O)c3ccco3)cc(-c3nc4ccccc4[nH]3)c2=N)c1` was 3.36 µM; that for `CC(C)N1CCc2c(sc(NC(=O)CCS(=O)(=O)c3ccccc3)c2C#N)C1` was > 15 µM (inactive).

`CCOc1ccc2nc(N3C(=O)/C(=C/c4ccc(Cl)cc4)NC3=S)sc2c1`: the EC50 was 1.3 µM. In the case of `CCOc1ccc(C(=O)NC(=S)N(Cc2ccccc2)Cc2ccccc2)cc1`, the EC50 is 1.39 µM. Next, `CC(=O)N(C)c1ccc(OCC(O)Cn2c3ccc(Cl)cc3c3cc(Cl)ccc32)cc1` (stereo not drawn): 3.35 µM; `Nc1c(Cl)cc(C2=NCCn3c2c2ccc([N+](=O)[O-])cc2[n+]3[O-])cc1Cl`: 2.44 µM; `CC(C)C1Nc2c(O)cc(Cl)c([N+](=O)[O-])c2C2C=CCC21` (stereo not drawn): 3.1 µM.

For the compound `COc1ccc(C(=O)c2c(C(F)(F)F)oc3c2C(=O)c2ccccc2C3=O)cc1OC`, the EC50 is 0.746 µM.

As for `CCCNC1=C(C)C(=O)C2=C(C1=O)C(COC(N)=O)[C@]1(OC)C3NC3CN21` (stereo partly drawn), the EC50 is below 0.06 µM. Next, `O=c1c2c(nc(NCCO)n1CC1CCCCC1)-c1ccccc1CC21CCCC1`: 4.16 µM; `O=c1cc2oc3cc(O)c(O)cc3c(-c3ccccc3[N+](=O)[O-])c-2cc1O`: 9.36 µM; `Cc1cccc(C)c1OC1(c2ccccc2)OC(=O)c2ccccc21` (stereo not drawn): 2.85 µM. `CC1(C)S[C@@H]2[C@H](NC(=O)COc3ccccc3)C(=O)N2C1C(=O)OCc1ccccc1` (stereo partly drawn): the EC50 is 1.04 µM.

Regarding `CC(C)=CCc1cc([C@@H]2CC(=O)c3ccc(O)c(CC=C(C)C)c3O2)ccc1O`, the EC50 was 3.63 µM.

As for `Cc1ccc(Cn2cc(/C=N/NC(=O)Cc3nnc(NC(=O)c4ccc(C)cc4)s3)c3ccccc32)cc1`, the EC50 is 4.24 µM.

As to `COc1cc(C(=O)NNC(=S)NC(=O)c2ccc(F)cc2)cc(OC)c1OC`, the EC50 is 0.989 µM.

With `O=C(O)CN1C(=O)/C(=C\c2cc(Br)ccc2OCc2ccc(Cl)cc2)SC1=S`, the EC50 is 1.56 µM. The value for `Cc1onc(-c2ccccc2)c1C(=O)NC(=S)NNC(=O)c1ccc(O)cc1` was 0.568 µM; that for `C/C(=N\NC(=S)NCCc1ccccc1)c1ccc(Cl)cc1Cl` was 6.56 µM; that for `C/C(=N\NC(=O)c1cc2ccccc2cc1O)c1cccs1` was 12.5 µM. `COC(=O)c1nc(NC(=S)NC(=O)c2cccs2)sc1C`: the EC50 was 12.7 µM.

In the case of `O=C(NCc1nnc(SCC(=O)N2CCOCC2)o1)c1c(F)cccc1F`, the EC50 was > 15 µM (inactive). For the compound `CCSc1nnc(NC(=O)c2ccc3ccccc3n2)s1`, the EC50 is 2.53 µM. `Cc1ccc(OCC(=O)Nc2nc(-c3ccccn3)cs2)c(C)c1`: the EC50 is 1.99 µM. For the compound `O=C(NC(=S)N1CCN(c2nc(-c3ccccc3)cs2)CC1)c1cncc(Br)c1`, the EC50 was 1.2 µM.

Consider `O=C(Nc1ccc(Oc2ccc(Cl)cc2)c(Cl)c1)c1cc(I)cc(I)c1O`, for which the EC50 was below 0.06 µM. Next, `CCOC(=O)C1=C(O)c2ccccc2C(=O)/C1=C\c1ccc(CC)cc1`: 8.49 µM. The value for `COc1ccc(-c2cn[nH]c2-c2ccc(OCc3ccccc3)cc2O)cc1` was 2.38 µM. Next, `CC(C)=CCCC1(C)C=Cc2c(c(C)cc3c2[nH]c2cc(O)ccc23)O1` (stereo not drawn): 2.65 µM; `Oc1ccccc1/C=N/Nc1nc2ccccc2o1`: 2.42 µM. On to `CCCc1nc2ccccc2c(=O)n1/N=C/c1c(C)[nH]n(-c2ccc(C)cc2)c1=O`, for which the 50% effective concentration (EC50) was 1.23 µM.

As for `Cc1cc(N2CCN(c3ccccc3Cl)CC2)n2cc(-c3ccccc3)nc2n1`, the EC50 was 6.63 µM.

As for `CN1/C(=C\C(=O)Nc2ccc(Cl)cc2)C(C)(C)c2ccccc21`, the EC50 is 8.64 µM. Consider `CCc1cc2c(COC(=O)c3cccc(NS(C)(=O)=O)c3)cc(=O)oc2cc1O`, for which the EC50 was 7.84 µM. Next, `CN(C)c1ccc(O)c2c1CC1CC3C(N(C)C)C(=O)C(C(N)=O)=C(O)[C@@]3(O)C(=O)C1=C2O` (stereo partly drawn): 0.096 µM; `CC(Nc1nc(-c2ccccc2O)nc2ccccc12)c1ccccc1` (stereo not drawn): 8.79 µM; `CCOC(=O)c1cnn(-c2nc(-c3cccc(F)c3)cs2)c1C(F)(F)F`: 12.3 µM. In the case of `O=C(N/N=C/c1ccc([N+](=O)[O-])o1)c1ccc(NS(=O)(=O)c2cccs2)cc1`, the EC50 is 3.55 µM. The value for `Cc1ccc(NC(=O)c2nc[nH]c2C(=O)N[C@@H](C)c2ccccc2)cc1` was 1.13 µM. `Cc1ccc(C)c(-c2cc(C(=O)Nc3sc(C)c(C)c3C(N)=O)c3ccccc3n2)c1`: the EC50 was 3.55 µM.

Take `COc1ccc(C(=O)NC(=S)NNC(=O)c2ccccc2C)cc1`: the EC50 is 1.49 µM. Regarding `CCOc1ccc(NC(=O)CN(C)C(=O)C2CC(=O)N(c3ccc4c(c3)OCCO4)C2)cc1OCC` (stereo not drawn), the EC50 is > 15 µM (inactive). As to `O=C(N/N=C/c1cccc(F)c1)c1c(O)c2ccccc2[nH]c1=O`, the EC50 was 2.54 µM. Take `Cc1nn(CC(O)CN2c3ccccc3Sc3ccccc32)c(C)c1Br` (stereo not drawn): the EC50 is 2.15 µM.

For the compound `O=c1cc(-c2ccccc2)[nH]n1-c1nc2ccccc2s1`, the EC50 is 2.72 µM. `CCCCOC(=O)c1ccc(NC(=S)N2CCN(c3ncc4c(=O)c(C(=O)O)cn(CC)c4n3)CC2)cc1`: the EC50 was 2.04 µM. Consider `O=C(/C=C/c1cn(-c2ccccc2)nc1-c1ccccc1)Nc1ccc(C(=O)O)cc1`, for which the EC50 is 3.76 µM. The value for `O=C(CSc1nc(Nc2ccccc2)nc(N2CCOCC2)n1)Nc1cc(Cl)ccc1O` was 4.13 µM; that for `O=[N+]([O-])c1ccc(-c2nc(-c3cccs3)c(-c3cccs3)[nH]2)cc1` was 9.57 µM.

Turning to `Cc1nn(Cc2ccc(Cl)cc2Cl)c(C)c1NC(=O)NC12CC3CC(CC(C3)C1)C2`, the EC50 was 14.2 µM. Regarding `O=[N+]([O-])c1cc(C(F)(F)F)ccc1NCCNC(=S)Nc1ccc(Cl)cc1`, the EC50 is 4.79 µM.

With `CCOc1ccc(NC(=O)c2c(NC(=O)CNCCN3CCOCC3)sc3c2CCC3)cc1`, the EC50 was 1.1 µM. As for `O=c1cc2c(nn1Cc1ccc(Cl)cc1Cl)-c1ccccc1CC2`, the EC50 was 5.37 µM. Turning to `Cc1ccc(/C=C/C(=O)c2ccc([N+](=O)[O-])o2)cc1`, the EC50 was 5.27 µM. Next, `Cc1c(N/N=C(\C#N)C(=O)c2ccc(Cl)cc2)c(=O)n(-c2ccccc2)n1C`: 0.36 µM. Regarding `CCCCCCCCOC(=O)c1c(CSC(=N)N)n(C)c2cc(Br)c(OC(C)=O)cc12`, the half-maximal effective concentration (EC50) is 2.83 µM. The value for `O=C(Nc1cccnc1)Nc1cc(Cl)cc(Cl)c1` was 8.7 µM; that for `CN1CCN(C2Cc3ccc(Cl)cc3Sc3ccc(F)cc32)CC1` (stereo not drawn) was 6.47 µM.

On to `CC1CC(C)CN(Cc2nc(N)nc(Nc3ccc4ccccc4c3)n2)C1` (stereo not drawn), for which the 50% effective concentration (EC50) is 1.41 µM. Next, `O=C(NC(=S)NNC(=O)c1ccccc1O)c1ccccc1`: 2.35 µM; `c1ccc(CCNc2nc(-c3ccccn3)cs2)cc1`: 3.71 µM; `Cc1ccccc1OCCCCc1c(C)n[nH]c1C`: 7.37 µM. `CCCCCCOC(=O)/C=C/c1c(C)[nH]c(=O)[nH]c1=O`: the EC50 was 0.475 µM. Next, `CC1(c2ccccc2)CC(C)(C)N2C(=O)/C(=C3\SC(=S)NC3=O)c3cccc1c32` (stereo not drawn): 0.43 µM. The value for `Cc1n[nH]c(C)c1CCOc1ccc(C(C)C)cc1` was 11.2 µM; that for `Cc1ccccc1OCCCc1c(C)n[nH]c1C` was 1.09 µM; that for `COC(=O)c1cc(C(=O)Nc2nc3ccccc3[nH]2)cc([N+](=O)[O-])c1` was 8.85 µM.

For the compound `COc1ccc(-c2[nH]ncc2N=Nc2cc(C)cc(C)c2)cc1`, the EC50 was 4.27 µM.
